In US9320739B2 (AMBIT BIOSCIENCES CORPORATION, priority 2008, dated 2016) one finds Kd and S35 data, which are given here for six molecules.

Assay [1] concerns the target T1, RAF kinases (Homo sapiens, UniProt P04049).
T1 construct: rows headed: RAF1 Kd; other: RAF1; fused on or other part: T7 phage fusion, or DNA tag for PCR detection after expression in HEK-293 cells
Nature of the assay: Competition binding assay to determine binding constants (Kd) between compounds and RAF kinases. The settings on record: RAF1.
Experimental: (§1) Competition binding assays used herein were developed, validated and performed as described in Fabian et al., Nature Biotechnology 2005, 23, 329-336. […] The liganded beads were blocked with excess biotin and washed with blocking buffer (SeaBlock (Pierce), 1% BSA, 0.05% Tween 20, 1 mM DTT) to remove unbound ligand and to reduce non-specific binding. […] Test compounds were prepared as 100× stocks in DMSO and rapidly diluted into the aqueous environment. DMSO was added to control assays lacking a test compound. Primary screen interactions were performed in polypropylene 384-well plates in a final volume of 34 μL, while Kd determinations were performed in polystyrene 96-well plates in a final volume of 135 pt. […] The kinase concentration in the eluates was measured by quantitative PCR. Each kinase was tested individually against each compound. Kds were determined using eleven serial threefold dilutions. A selectivity score, which is a quantitative measure of selectivity of a compound against a panel of enzymes, may be calculated for a compound by dividing the number of enzymes for which a compound meets a set criteria, (for example, a binding constant of 100 nM or less), by the total number of enzymes tested. […] (Note, for those compounds tested in a larger kinase panel, as indicated by an asterisk (*) next to the S35 score, the divisor is 321 (i.e. the larger panel contains 321 distinct kinases, excluding mutant variants.)).

Assay [2] has as its target T2, RAF kinases (Homo sapiens, UniProt P15056, V600E).
T2 construct: rows headed: BRAF V600E Kd; other: BRAF V600E; fused on or other part: T7 phage fusion, or DNA tag for PCR detection after expression in HEK-293 cells
The description is as above. Conditions: BRAF V600E.
Experimental: as §1

Assay [3] addresses T3, RAF kinases (Homo sapiens, UniProt P15056).
T3 construct: rows headed: BRAF WT Kd; other: BRAF WT; fused on or other part: T7 phage fusion, or DNA tag for PCR detection after expression in HEK-293 cells
The assay is described as above. The settings on record: BRAF WT.
Experimental: as §1

The test system of assay [4] is panel of 290 distinct kinases (321 in the larger panel), excluding mutant variants. Conditions: no asterisk: panel of 290 distinct kinases.
Experimental: as §1
[5] abbreviates: fraction of kinases inhibited 65% or greater.

Read-outs that look alike come from different tables or passages of the source. Bounds are passed on as bounds.

T2 sequence (P15056 whole entry V600E, the tested form may be a part): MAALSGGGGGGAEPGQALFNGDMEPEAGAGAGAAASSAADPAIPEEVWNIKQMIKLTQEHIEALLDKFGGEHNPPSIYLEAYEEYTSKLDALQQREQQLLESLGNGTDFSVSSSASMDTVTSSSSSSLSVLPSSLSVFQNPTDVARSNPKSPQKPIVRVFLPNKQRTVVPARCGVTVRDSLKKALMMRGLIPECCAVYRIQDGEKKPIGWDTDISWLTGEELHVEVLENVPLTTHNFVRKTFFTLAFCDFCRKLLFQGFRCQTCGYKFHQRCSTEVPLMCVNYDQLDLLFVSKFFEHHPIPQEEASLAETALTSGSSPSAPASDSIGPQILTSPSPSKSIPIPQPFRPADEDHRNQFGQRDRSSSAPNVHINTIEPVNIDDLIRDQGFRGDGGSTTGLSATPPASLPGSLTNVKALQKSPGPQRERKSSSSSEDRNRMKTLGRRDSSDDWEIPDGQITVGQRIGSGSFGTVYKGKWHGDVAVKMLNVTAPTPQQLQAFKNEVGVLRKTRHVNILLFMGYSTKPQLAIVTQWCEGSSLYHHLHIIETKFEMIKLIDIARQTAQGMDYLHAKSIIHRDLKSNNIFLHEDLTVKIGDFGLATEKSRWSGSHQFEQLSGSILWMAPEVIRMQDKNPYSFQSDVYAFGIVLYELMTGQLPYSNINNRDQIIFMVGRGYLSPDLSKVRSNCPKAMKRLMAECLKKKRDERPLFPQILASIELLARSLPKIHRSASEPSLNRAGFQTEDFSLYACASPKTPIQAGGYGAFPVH
T1 sequence (P04049 whole entry, the tested form may be a part): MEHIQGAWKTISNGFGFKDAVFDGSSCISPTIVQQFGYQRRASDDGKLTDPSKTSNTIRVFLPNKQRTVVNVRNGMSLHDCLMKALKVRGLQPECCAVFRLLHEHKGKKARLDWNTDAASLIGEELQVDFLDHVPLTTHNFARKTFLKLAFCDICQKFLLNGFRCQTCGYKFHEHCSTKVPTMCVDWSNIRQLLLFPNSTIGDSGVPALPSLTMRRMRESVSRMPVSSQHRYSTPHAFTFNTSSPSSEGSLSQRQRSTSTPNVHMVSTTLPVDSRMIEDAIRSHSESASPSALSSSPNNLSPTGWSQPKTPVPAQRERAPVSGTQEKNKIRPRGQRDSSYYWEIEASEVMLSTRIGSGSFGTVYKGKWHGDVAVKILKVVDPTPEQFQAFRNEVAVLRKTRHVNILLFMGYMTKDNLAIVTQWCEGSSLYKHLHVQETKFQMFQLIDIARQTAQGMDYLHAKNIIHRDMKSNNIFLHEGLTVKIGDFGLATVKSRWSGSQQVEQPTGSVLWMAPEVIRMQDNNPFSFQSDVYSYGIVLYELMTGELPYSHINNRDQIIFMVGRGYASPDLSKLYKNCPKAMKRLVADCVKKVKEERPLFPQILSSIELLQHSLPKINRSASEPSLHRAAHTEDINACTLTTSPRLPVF
T3 sequence (P15056 whole entry, the tested form may be a part): as the sequence (P15056 whole entry V600E, the tested form may be a part) above, with E600V counted along it

A word on the Kd: it is the free concentration of one partner at which half of the binding sites on the other are occupied at equilibrium, for simple one-to-one binding. The low end stands for tighter binding, the high end for weaker binding. In the case of `COc1cc2ncnc(Oc3cccc(NC(=O)Nc4ccc(Cl)cc4)c3)c2cc1OC` [Ex 175, 1-(4-chlorophenyl)-3-(3-(6,7-dimethoxyquinazolin-4-yloxy)phenyl)urea], the Kd on RAF kinases [1], on RAF kinases [2] and at RAF kinases [3] was < 250 nM in each case. In addition, the S35 result in assay [4] (setting [5]) is on record as “C (0.20 < C ≦ 0.40)”.

In the case of `COc1cc2ncnc(Oc3cc(NC(=O)Nc4cc(C(C)(C)C)on4)ccc3Cl)c2cc1OC` [Ex 10, 1-(5-tert-butylisoxazol-3-yl)-3-(4-chloro-3-(6,7-dimethoxyquinazolin-4-yloxy)phenyl)urea], the Kd on RAF kinases [1] lay in the range of 500 to 1000 nM. The S35 result in assay [4] (setting [5]) is recorded as “D (D > 0.40)”.

As to `COc1cc2ncnc(Sc3cccc(NC(=O)Nc4cc(C(C)(C)C)nn4-c4ccccn4)c3)c2cc1OC` [Ex 345, 1-(3-tert-butyl-1-(pyridin-2-yl)-1H-pyrazol-5-yl)-3-(3-(6,7-dimethoxyquinazolin-4-ylthio)phenyl)urea], the S35 entry in assay [4] is on record as “B (0.10 < B ≦ 0.20)”.

`COc1cc2ncnc(Oc3cccc(NC(=O)Nc4cc(C(F)(F)F)n(-c5ccccc5)n4)c3)c2cc1OC` [Ex 169, 1-[3-(6,7-dimethoxyquinazolin-4-yloxy)phenyl]-3-[1-phenyl-5-(trifluoromethyl)-1H-pyrazol-3-yl]urea] yielded a Kd on RAF kinases [2] of 250 to 500 nM.

`COc1cc2ncnc(Sc3cccc(NC(=O)Nc4cc(C(C)(C)C(F)(F)F)nn4-c4ccccc4)c3)c2cc1OC` [Ex 307, 1-(3-(6,7-dimethoxyquinazolin-4-ylthio)phenyl)-3-(1-phenyl-3-(1,1,1-trifluoro-2-methylpropan-2-yl)-1H-pyrazol-5-yl)urea]: the S35 result in assay [4] was “D (D > 0.40)”.

Regarding `COc1cc2ncnc(Oc3cccc(NC(=O)Nc4cc(C(C)(C)C)nn4-c4cc[nH]c(=O)c4)c3)c2cc1OC` [Ex 313, 1-(3-tert-butyl-1-(2-oxo-1,2-dihydropyridin-4-yl)-1H-pyrazol-5-yl)-3-(3-(6,7-dimethoxyquinazolin-4-yloxy)phenyl)urea], the S35 result in assay [4] was “D (D > 0.40)”.
